How the values were obtained:
Assay type in all cases: cell-based
Set-up in all cases: dose or concentration left out as unconfirmed
Settings in all cases: 96 hours
[1] = tested on: prostate tumor cell line DU-145; test: Trypan blue exclusion viability assay, DU145
[2] = tested on: non-small cell lung carcinoma cell line H157; test: Trypan blue exclusion viability assay, H157
[3] = tested on: breast tumor cell line BT-20; test: Trypan blue exclusion viability assay, BT20
[4] = tested on: breast tumor cell line MCF-7; test: Trypan blue exclusion viability assay, MCF-7
Experimental: MCF-7 is estrogen-responsive, while BT-20 is an estrogen-unresponsive cell line. NIH/3T3 and HFL are normal murine and human fibroblasts, respectively. MCF-7, BT-20, DLD-1 and H157 were grown in Dulbecco's modified Eagle's medium (DMEM) containing 10% fetal bovine serum supplemented with penicillin and streptomycin. DU145 was cultured in RPMI with 10% fetal bovine serum containing penicillin and streptomycin. […] All cell cultures were maintained at 37° C. in a humidified atmosphere of 5% CO2. Cells were treated with test compound at 2.5 mM concentration and cell viability was determined after 96 hours by the Trypan blue exclusion method.

[5] = tested on: colorectal carcinoma cell line DLD-1; test: Trypan blue exclusion viability assay, DLD-1

Row | Compound | Cell death, DU145 [1] | Cell death, H157 [2] | Cell death, BT20 [3] | Cell death, MCF-7 [4] | Cell death, DLD-1 [5]
1 | O=S(=O)(/C=C/c1ccc(F)cc1)Cc1ccc(Cl)cc1Cl [Example 4, (E)-4-Fluorostyryl-2,4-dichlorobenzylsulfone] | ++ (10-15% = ++) | + (5-10%: = +) | ++ (10-15% = ++) | ++ (10-15% = ++) | –
2 | O=[N+]([O-])c1ccc(CS(=O)(=O)/C=C/c2ccc(F)cc2)cc1 [Example 9, (E)-4-Fluorostyryl-4-nitrobenzylsulfone] | ++ (10-15% = ++) | ++ (10-15% = ++) | ++ (10-15% = ++) | ++ (10-15% = ++) | − (0% = −)
3 | O=S(=O)(/C=C/c1ccc(F)cc1)Cc1ccc(C(F)(F)F)cc1 [Example 1, (E)-4-Fluorostyryl-4-trifluoromethylbenzylsulfone] | +++ (40-50% = +++) | ++ (10-15% = ++) | +++ (40-50% = +++) | +++ (40-50% = +++) | +++ (40-50% = +++)
